Results reported in US9062095B2, “Mutant double cyclized receptor peptides inhibiting β1-adrenoceptor antibodies” (JULIUS-MAXIMILIANS-UNIVERSTITAT-WURZBURG, priority 2007, dated 2015).
Positions of bridges follow the written chain, without caps; N, C: chain ends. No end group written: not given here.

Experiments:
anti-β1-ECII antibodies = assay: ELISA-competition assay: peptide preincubated with sera/IgG of immunized antibody-positive rats, linear 25AA Cys/Cys-peptide as antigen; type: binding, rat; set-up: blocking capacity (% of blocked versus non-blocked ELISA-reactivity): concentration or dose not given beside the values; conditions: for decrease in circulating free anti-beta1-ECII antibodies: n=6 sera (FIG. 11); for blocking capacity (% of blocked versus non-blocked ELISA-reactivity): IgG from n=78 immunized antibody-positive rats, preincubation 12 h, mutants with D-Glu ring closure (FIG. 7); for blocking capacity (% of blocked versus non-blocked ELISA-reactivity) / blocking-efficiency versus unblocked sera: 4° C.; for blocking capacity (% of blocked versus non-blocked ELISA-reactivity) / blocking efficiency (% of blocked versus non-blocked ELISA reactivity) / blocking capacity (% of blocked versus non-blocked ELISA reactivity): ±SEM; for blocking-efficiency versus unblocked sera: n=6 sera, incubation 12-14 h, mean ±SEM (FIG. 27); for blocking efficiency (% of blocked versus non-blocked ELISA reactivity): type1 sera (93%, n=64 of 69), FIG. 9 upper panel; for blocking capacity (% of blocked versus non-blocked ELISA reactivity): type 2 sera (7%, n=5 of 69), FIG. 9 lower panel
Description: FIG. 9 is a diagram composed of two major-(upper and lower) panels resuming the blocking effect of both 25AA- and 18AA-cyclopeptide mutants having a Gln closure site, as well as 18AA cyclopeptide mutants having a D-Glu closure site after preincubation (12 h, 4° C., rotating incubation) with sera isolated from 69 different immunized antibody-positive rats in an ELISA-competition assay using the 3 Cys-containing linear 25AA Cys/Cys-peptide as an antigen. The upper panel depicts rat sera preferentially reacting with the Cys/Ser mutated cyclopeptides (type1 reaction, n=64), separated in cyc25AA(Gln)-peptides (left) and cyc18AA(Gln and D-Glu)-peptides (right). The lower panel depicts the rat sera reacting with both the Cys/Ser and the Ser/Cys mutated cyclopeptides (type2 reaction, n=5), again separated in the results obtained with cyc25AA(Gln)-peptides (left) and cyc18AA(Gln and D-Glu)-peptides (right).
FIG. 11 is a diagram resuming the dose-dependent (x-axis, abscissa: fold molar excess of specific peptides) blocking capacity of various linear and cyclic beta1-ECII-peptides given in % of the unblocked antibody-titer (y-axis, ordinate), including 25AA Cys/Cys linear peptides (black squares), 25AA Cys/Ser cyclopeptide mutants (white squares), 18AA Cys/Cys cyclo-peptides (black diamonds), 18AA Cys/Ser cyclopeptide mutants (white diamonds), and 18AA Cys/Ser linear peptide mutants (vertically hatched diamonds) in an ELISA competition assay performed with sera from n=6 randomly chosen immunized antibody-positive rats.
FIGS. 27A and B depict the in vitro blocking (=neutralization) capacity of various cysteine-containing cyclopeptide variants of the second extracellular loop (ECII) of the human beta1-adrenergic receptor, determined by testing n=6 individual sera (27A) of immunized beta1-ECII-antibody-positive rats after over-night incubation with the indicated cyclopeptides (12-14 h, 4° C.) by ELISA. Columns in 27A represent the receptor-antibody blocking efficiency of the indicated cyclopeptides in % of the antibody-(ELISA-)signals obtained with unblocked antibody-positive rat sera. Columns in 27B represent the mean blocking efficiency for each cyclopeptide, error bars indicate ±SEM.
The blocking capacity of β1-ECII-18AA cyclopeptide mutants (Cys13-Ser14 or Ser13-Cys14 mutation having an additional D-Glu-Gln exchange, e.g. at the ring closure site) was compared with the 3 Cys-containing 25AA or 18AA Cys/Cys cyclopeptides after preincubation (12 h, 4° C., rotating incubation over-night) of different numbers of sera from immunized antibody-positive rats in an ELISA-competition assay using the 3 Cys-containing linear 25AA Cys/Cys-peptide as an antigen. FIGS. 4, 5, and 7-10 show the results from measurements performed with sera of n=12 up to n=82 immunized antibody-positive rats using different cyclopeptides of the present invention.

[1] = test system: beta1-receptor antibodies; assay: in vivo prevention study: five prophylactic peptide applications, serum antibody-titers by ELISA; set-up: species or system rat; conditions: 1.0 mg/kg body weight i.v., 4-weekly, prevention protocol (FIG. 12)
Description: FIG. 12 is a diagram resuming the in vivo blocking capacity of in total five (prophylatic) applications of various linear and cyclic beta1-ECII-peptides, started 3 months after the first immunization (and two subsequent beta1-ECII/GST-antigen-boosts, corresponding to a prevention protocol). Serum-titers of the beta1-receptor antibodies were determined before and 18-20 h after each peptide injection (abscissa, time in months) and are given in % of the corresponding antibody-titers of immunized untreated rats (y-axis, ordinate). The injected peptides were: 25AA Cys/Cys linear peptide (black squares), […] (white squares), 18AA Cys/Cys cyclopeptide (black diamond), 18AA Cys/Ser cyclopeptide mutant (white diamonds), and the 18AA Cys/Ser linear peptide mutant (vertically hatched diamonds). […] Black circles indicate antibody-titers of untreated regularly (every 4 weeks) immunized animals serving as reference, set at 100%.
The in-vivo blocking effects of both 25AA and 18AA Cys/Ser mutant cyclopeptides (with a Gln closure site), the 18AA Ser/Cys mutant cyclopeptide, and a mutated linear 18AA Cys/Ser peptide were analyzed after intravenous (i.v.) injection of 1.0 mg/kg body weight (Bw) of each construct into freshly immunized antibody-positive rats (i.e., use of cyclo-peptides in a kind of “prevention” study), with a first cyclopeptide-application 3 months after the initial immunization (and two subsequent boost at months 2 and 3). In total, five prophylactic applications of the various constructs were given at 4-weekly intervals, always two weeks after the monthly continued antigen boost. Sera were drawn 18-20 hours after i.v. injection and assayed for reactivity by ELISA using the 3 Cys-containing linear 25AA Cys/Cys-peptide as an antigen (FIG. 12).

[2] = test system: anti-beta1-receptor antibody-titers; assay: in vivo therapy study in long term immunized cardiomyopathic rats: antibody-titers by ELISA; set-up: species or system rat
Description: FIG. 16A is a diagram resuming the in vivo blocking effect of both 25AA and 18AA cyclopeptide mutants with a Gln closure site, determined after a total of nine intravenous (i.v.) in-jections of 1.0 mg/kg body weight (Bw) of the indicated peptides into immunized antibody-positive rats. Sera were drawn before and 18-20 hours after i.v. injection of the various peptides every 4 weeks (abscissa: time in months of treatment) and assayed for reactivity by ELISA using the 3 Cys-containing linear 25AA Cys/Cys-peptide as an antigen.
FIG. 16B is a diagram resuming the in vivo blocking effect of various concentrations of 18AA cyclopeptide mutants with a Gln closure site, determined after a total of nine intra-venous (i.v.) injections of 0.25, 1.0, 2.0, and 4.0 mg/kg body weight (Bw) into immunized antibody-positive rats, irrespective of the cyclopeptide “responder-state” of individual animals. Sera were drawn before and 18-20 hours after i.v. injection of the various peptides every 4 weeks (abscissa: time in months), and assayed for reactivity by ELISA using the 3 Cys-containing linear 25AA Cys/Cys-peptide as an antigen.
Sera were drawn as described above and assayed for reactivity by ELISA using the 3 Cys-containing linear 25AA Cys/Cys-peptide as an antigen.
Moreover, the in vivo blocking effects of therapeutically used 25AA and 18AA Cys/Ser cyclo-peptide mutants, the 18AA Ser/Cys mutant (Gln-)cyclopeptide, and a mutated linear 18AA Cys/Ser peptide were assessed after a first intravenous (i.v.) dose (i.e., 1.0 mg/kg body weight (Bw)) of each construct injected into long term immunized anti-beta1-ECII antibody-positive rats, yet presenting a cardiomyopathic phenotype (after nine months of 1× monthly immunization with the beta1-ECII/GST antigen; FIGS. 14-16 and 17). Sera were drawn 18-20 hours after the first i.v. injection of the various constructions and assayed for reactivity by ELISA using the 3 Cys-containing linear 25AA Cys/Cys-peptide as an antigen.
The latter doses were almost equally efficient in terms of both, neutralization of circulating receptor antibodies (FIGS. 16b and c), and reversal of antibody-induced cardiomyopathic features (FIGS. 17b, 19b, 20, and 21b).
In order to generate anti-β1-receptor antibodies the animals were immunized with a fusion protein containing bacterial glutathione-S-transferase and the sequence of the second extra-cellular loop of the human β1-adrenergic receptor (GST/β1-ECII). Before treatment of the animals with mutated cyclopeptides according to the present invention, progressive dilated immune cardiomyopathy is observed after 6 to 8 months of regular immunization every four weeks (FIG. 17). All of the immunized animals developed high titers of stimulatory anti-β1-ECII antibodies. The specific anti-β1-ECII titer reached a maximum between 6 and 8 months of continuously boosting the animals every 4 weeks, whereas NaCl-injected control animals developed no specific receptor antibodies (FIG. 18).
Such immunized animals were used for the application of mutant cyclopeptides according to the present invention. The in-vivo blocking effect of both 25AA and 18AA Cys/Ser mutant cyclopeptides (with a Gln closure site) were determined after a first intravenous (i.v.) injection of 1.0 mg/kg body weight (Bw) (for 18AA Cys/Ser cyclopeptides also 0.25 mg/kg/Bw) into immunized antibody-positive rats. Sera were drawn 18-20 hours after i.v. injection of the different peptides and assayed for reactivity by ELISA using the 3 Cys-containing linear 25AA Cys/Cys-peptide as an antigen.

[3] = 20-fold molar excess of peptide
[4] = 80-fold molar excess of peptide

Row | Substance | decrease in circulating free anti-beta1-ECII antibodies (anti-β1-ECII antibodies; 8-fold molar excess of peptide) [%] | decrease in circulating free anti-beta1-ECII antibodies (anti-β1-ECII antibodies; [3]) [%] | decrease in circulating free anti-beta1-ECII antibodies (anti-β1-ECII antibodies; [4]) | blocking capacity (% of blocked versus non-blocked ELISA-reactivity) (anti-β1-ECII antibodies) [%] | blocking-efficiency versus unblocked sera (anti-β1-ECII antibodies) [%] | blocking efficiency (% of blocked versus non-blocked ELISA reactivity) (anti-β1-ECII antibodies) [%] | blocking capacity (% of blocked versus non-blocked ELISA reactivity) (anti-β1-ECII antibodies) [%] | antibody-titer decrease after 5 injections, compared with untreated immunized animals [1] [%] | initial transient increase in antibody-titers ([2]; 1.0 mg/kg Bw (FIGS. 16a and b)) | absolute decrease in antibody-titers after 9 months of treatment, of the titer at start of therapy ([2]; 1.0 mg/kg i.v. every 4 weeks) [%] | fraction of rat sera blocked by the peptide (anti-β1-ECII antibodies; n=69 sera, (Gln-)cyclopeptide mutants (FIG. 10), Cys/Ser = blocked by it alone (n=64), Ser/Cys = sera blocked by both (n=5)) | in vivo blocking capacity after the first i.v. injection ([2]; 1 mg/kg Bw, sera 18-20 hours after injection (FIGS. 14 and 15))
1 | 18AA Cys/Cys cyclopeptides: (non-mutated) 3 Cys-containing β1-ECII-homologous 18AA cyclopeptide (cyclo(ADEARRCYNDPKCCDFVQ); not fully specified (bridges); cysteine pairing not given here) [reference compound] | 46 | 56 | 71% | 60±4 | 66.1±7.0 | 59±2 | 67±6 | 89.9±3 |  |  |  | 
2 | ARAESDEARRCYNDPKCCDFVTNRQ (cysteine pairing not given here) [linear 25AA Cys/Cys peptides, reference compound] | 24 | 35 | about 50% | 55±4 |  |  |  | 25.8±3 |  |  |  | 
3 | Cyclo-Ala-Arg-Ala-Glu-Ser-Asp-Glu-Ala-Arg-Arg-Cys-Tyr-Asn-Asp-Pro-Lys-Cys-Ser-Asp-Phe-Val-Thr-Asn-Arg-Gln (cyclo(ARAESDEARRCYNDPKCSDFVTNRQ); disulfide 11-17 (inferred)) [25AA Cys/Ser mutant cyclopeptides] | 30 | 49 | 83% |  |  | 69±2 | 48±6 |  | transient increase in antibody-titers | −37±13 |  | 
4 | cyc22AA Cys/Cys: 3 cysteine-containing cyclic 22AA beta1-ECII peptide with a Gly closure site (cyclo(RAESDEARRCYNDPKCCDFVTG); disulfide (positions not given here)) [reference compound] |  |  |  |  | 82.0±5.0 |  |  |  |  |  |  | 
5 | cyclo(Ala-Asp-Glu-Ala-Arg-Arg-Cys-Tyr-Asn-Asp-Pro-Lys-Ser-Cys-Asp-Phe-Val-Gln) (cyclo(ADEARRCYNDPKSCDFVQ); disulfide 7-14 (inferred)) [18AA Ser/Cys with Gln-] |  |  |  |  |  | 1±2 | 47±3 |  |  |  | about 7% | clearly less efficient
